Experiment in all cases: inhibition of tumour cell growth, NCI panel, 48 h
Experiment [1] relates to SW-620.
Experiment [2] has as its system SK-MEL-28.
The test system of experiment [3] is M14.
The subject of experiment [4] is HCT-15.
Experiment [5] has as its system SK-MEL-5.
Experiment [6] concerns OVCAR-3.
Experiment [7] deals with SN12C.
Experiment [8] deals with HT-29.
Experiment [9] concerns RXF 393.
Experiment [10] concerns OVCAR-4.
Experiment [11] relates to HOP-92.
Experiment [12] has as its system U-251.
The subject of experiment [13] is MCF7.
Experiment [14] relates to A549.
Experiment [15] relates to MDA-MB-231.
The subject of experiment [16] is SF-295.
Experiment [17] deals with OVCAR-8.
The test system of experiment [18] is PC-3.
Experiment [19] deals with CAKI-1.
Experiment [20] has as its system NCI-H522.

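Method: 48-hour compound exposure of cells in 96-well plates, five concentrations, linear interpolation of endpoints. GI50 = concentration required for 50% inhibition of growth.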 Activity calls are given as the source filed them. No stated cut-off is given here; in the data, active = GI50 up to about 1.1 µM and inactive = higher.

Take `Clc1ccc(-c2cn3c(nc4ccccc43)c(/C=C/c3ccco3)n2)cc1`: the GI50 in [1] is 36.8 µM (inactive); in experiment [2], 57.9 µM (inactive); in [3], 58.1 µM (inactive); in [4], 57.5 µM; in [5], 33.9 µM (inactive); in experiment [6] it was 34.4 µM (inactive). Besides, the GI50 in experiment [7] was 50 µM (inactive); in experiment [8], 62.8 µM (inactive); in experiment [9], 33.7 µM (inactive); in [10], 25.3 µM (inactive); in experiment [11], 16.5 µM (inactive); in experiment [12], 28.2 µM (inactive). Besides, the figures for the GI50 in [13], in [14] and in experiment [15] were 7.85 µM (inactive), 46.6 µM (inactive) and 28.4 µM (inactive), respectively.
For `Cn1c(=O)c2[nH]c(Nc3cccc(Cl)c3)nc2n(C)c1=O`, the GI50 was 5.78 µM (inactive) in [1]; 4.84 µM (inactive) in experiment [16]; 5.42 µM (inactive) in experiment [2]; 5.6 µM (inactive) in experiment [3]; 4.99 µM in [4]; 4.28 µM (inactive) in experiment [5]. Also, the GI50 in experiment [17] is 6.17 µM (inactive); in experiment [7] it was 5.77 µM (inactive); in [8], 3.99 µM (inactive); in [9], 2.05 µM (inactive); in experiment [10], 4.05 µM (inactive); in experiment [11], 2.78 µM (inactive). For the same compound, the GI50 in experiment [18] is 4.11 µM (inactive); in [13], 3.79 µM (inactive); in [14], 5.6 µM (inactive); in experiment [19], 4.75 µM (inactive); in [15], 7.48 µM (inactive).
On to `C[n+]1ccc2/c(=C\C#N)c3ccccc3n21`, for which the GI50 is 35.1 µM (inactive) in experiment [1]; 33.7 µM (inactive) in experiment [16]; 23.1 µM (inactive) in experiment [2]; 48.2 µM (inactive) in experiment [3]; > 100 µM in experiment [4]; 16.7 µM (inactive) in experiment [5]. In addition, the GI50 in [20] is 24.5 µM (inactive); in experiment [6] it was 14.6 µM (inactive); in experiment [17], 36.6 µM (inactive); in experiment [7], 27.9 µM (inactive); in experiment [8] it was 22.9 µM (inactive); in [9], 38.1 µM (inactive). The GI50 is 21.1 µM (inactive) in [10]; 22.4 µM (inactive) in experiment [11]; 25.9 µM (inactive) in [18]; 12.9 µM (inactive) in experiment [12]; 20.5 µM (inactive) in experiment [13]; 19.1 µM (inactive) in experiment [14]. The GI50 in [19] is > 100 µM (inactive).
For `CC1CNC(NS(=O)(=O)c2cc(C(=O)Nc3ccccc3)c(Cl)cc2S)=NN1` (stereo not given), the GI50 is 40.6 µM (inactive) in [1]; 38.5 µM (inactive) in experiment [16]; 45.3 µM (inactive) in experiment [2]; 26.4 µM (inactive) in [3]; 33.8 µM in experiment [4]; 23.2 µM (inactive) in [5]. Further, the GI50 was 23.4 µM (inactive) in experiment [20]; 41.4 µM (inactive) in experiment [6]; 30.8 µM (inactive) in experiment [17]; > 100 µM (inactive) in experiment [7]; 38.8 µM (inactive) in [8]; 67.3 µM (inactive) in [10]. Further, the GI50 is 29 µM (inactive) in experiment [18]; 39.1 µM (inactive) in experiment [12]; 36.5 µM (inactive) in [13]; 33.7 µM (inactive) in [14]; > 100 µM (inactive) in [19]; > 100 µM (inactive) in experiment [15].
In the case of `O=C(Cc1ccccc1)NNc1nc(NNC(=O)c2ccncc2)nc(Nc2cccc(Cl)c2)n1`, the GI50 in experiment [1] was > 10 µM (inactive); in experiment [2], > 10 µM (inactive); in experiment [3] it was > 10 µM (inactive); in experiment [4], > 10 µM; in experiment [5], > 10 µM (inactive); in experiment [17], > 10 µM (inactive). Moreover, the GI50 in experiment [7], in experiment [8], in experiment [10], in experiment [11], in experiment [12] and in [13] was > 10 µM (inactive) each time. In addition, the GI50 in experiment [14], in experiment [19] and in [15] was > 10 µM (inactive) in each case.
As for `C=C1C(=O)OC2C3C(=C)[C@@H](OC(C)=O)CC3C(C)=CC(OC(=O)C(C)(O)C(C)OC(C)=O)[C@@H]12` (stereo not given in full), the GI50 was 2.88 µM (inactive) in experiment [1]; 48.2 µM (inactive) in experiment [16]; 14 µM (inactive) in experiment [2]; 7.6 µM (inactive) in experiment [3]; 10.4 µM in [4]; 7.4 µM (inactive) in experiment [5]. The GI50 was 1.52 µM (inactive) in [20]; 9.82 µM (inactive) in [6]; 20.1 µM (inactive) in experiment [17]; 14.7 µM (inactive) in experiment [7]; 5.09 µM (inactive) in experiment [8]; 3.61 µM (inactive) in [9]. In addition, the GI50 in experiment [10] is 7.28 µM (inactive); in [18] it was 16.3 µM (inactive); in experiment [12], 16.8 µM (inactive); in experiment [13] it was 10.7 µM (inactive); in [14], 26.2 µM (inactive); in experiment [19] it was 2.9 µM (inactive). In addition, the GI50 in experiment [15] was 19.8 µM (inactive).
For the compound `COc1ccc(/C=N/NC(=O)C2=C(N)N(c3ccccc3)C(=C(C#N)C#N)S2)cc1`, the GI50 in experiment [1] is > 100 µM (inactive); in [16], 45 µM (inactive); in experiment [2], > 100 µM (inactive); in experiment [3], > 100 µM (inactive); in [4], > 100 µM; in experiment [5], > 100 µM (inactive). Moreover, the GI50 in experiment [20] was > 100 µM (inactive); in experiment [6] it was 60.4 µM (inactive); in experiment [17], 93.8 µM (inactive); in [7] it was > 100 µM (inactive); in experiment [8] it was > 100 µM (inactive); in [10], > 100 µM (inactive). Moreover, the GI50 is 39.3 µM (inactive) in experiment [11]; > 100 µM (inactive) in experiment [18]; 63.8 µM (inactive) in experiment [12]; > 100 µM (inactive) in experiment [13]; > 100 µM (inactive) in experiment [14]; 79.6 µM (inactive) in experiment [15].
In the case of `C[C@H](NC1=CC(=O)C(N[C@@H](C)[C@H](O)c2ccccc2)=CC1=O)[C@H](O)c1ccccc1`, the GI50 is > 100 µM (inactive) in [1]; 70.1 µM (inactive) in [16]; > 100 µM (inactive) in experiment [2]; > 100 µM (inactive) in [3]; 68.9 µM in [4]; 49.5 µM (inactive) in [5]. In addition, the GI50 in [20] was 61.8 µM (inactive); in [6], > 100 µM (inactive); in experiment [17], > 100 µM (inactive); in experiment [7], > 100 µM (inactive); in experiment [8] it was 27.3 µM (inactive); in experiment [9] it was > 100 µM (inactive). In addition, the GI50 was > 100 µM (inactive) in [10]; > 100 µM (inactive) in [11]; 43.1 µM (inactive) in [18]; > 100 µM (inactive) in [12]; 95.3 µM (inactive) in experiment [14]; > 100 µM (inactive) in [19]. In experiment [15], the GI50 was 76.2 µM (inactive).
For `COc1cc(OC)c(-n2[nH]c(=O)n(C)c2=O)c(OC)c1`, the GI50 in [1] was > 100 µM (inactive); in experiment [2], > 100 µM (inactive); in experiment [3], > 100 µM (inactive); in experiment [4] it was > 100 µM; in experiment [20], 49.7 µM (inactive); in experiment [6], > 100 µM (inactive). The GI50 in experiment [17], in experiment [7], in experiment [8], in [9], in experiment [10] and in experiment [18] was > 100 µM (inactive) in each case. The GI50 in experiment [12], in experiment [13], in experiment [14], in [19] and in [15] was > 100 µM (inactive) each time.
As to `CC(Cn1c2c(c3cc(O)ccc31)CCc1ccc(O)cc1-2)N(C)C` (stereo not given), the GI50 was 20.3 µM (inactive) in experiment [1]; 18.2 µM (inactive) in experiment [16]; 14.1 µM (inactive) in [3]; 13.9 µM in experiment [4]; 15.6 µM (inactive) in experiment [6]; 17.7 µM (inactive) in [17]. Besides, the GI50 in experiment [7] is 29.4 µM (inactive); in [8] it was 18.2 µM (inactive); in [9] it was 22.1 µM (inactive); in experiment [18] it was 12.4 µM (inactive); in [12], 28.2 µM (inactive); in experiment [13], 19.9 µM (inactive). Also, the figures for the GI50 in [19] and in [15] were 22.4 µM (inactive) and 26 µM (inactive), respectively.
With `NS(=O)(=O)c1nnc(NS(=O)(=O)c2ccc(Cl)cc2)s1`, the GI50 in experiment [1] is > 100 µM (inactive); in experiment [16] it was > 100 µM (inactive); in experiment [2], > 100 µM (inactive); in [3], > 100 µM (inactive); in [4] it was > 100 µM; in experiment [5] it was > 100 µM (inactive). The GI50 in experiment [20], in experiment [6], in [17], in experiment [7], in experiment [8] and in experiment [9] was > 100 µM (inactive) each time. In addition, the GI50 in experiment [10], in experiment [11], in experiment [12], in [13], in experiment [14] and in experiment [19] was > 100 µM (inactive) throughout. Also, in experiment [15], the GI50 was > 100 µM (inactive).
